Assay results: patent publication EP1215202A1, “Intermediates for the preparation of possibly substituted 8-cyano-1-cyclopropyl-7-(2,8-diazabicyclo-(4.3.0)-nonan-8-yl)-6-fluoro-1,4-dihydro-4-oxo-3-quinolin carboxylic acids and their derivatives” (BAYER AG, priority 1996, dated 1997)
Values after ≈ are worked out from the molar mass of the structure shown.

Legend:
[1] = test system: Actinomyces pyogenes Am 9602; assay: MIC (MHK), agar serial dilution on Iso-Sensitest agar; format: cell-based; conditions: Trueperella pyogenes, AM9602, Stamm Am 9602, 37°C, read after ca. 20 h, read-out: MHK-Werte
[2] = test system: Streptococcus suis Scc 9593; assay: as above; format: cell-based; conditions: SCC9593, Stamm Scc 9593, 37°C, read after ca. 20 h, read-out: MHK-Werte
[3] = test system: Fusobacterium necrophorum Ao 9620; assay: as above; format: cell-based; conditions: AO9620, Stamm Ao 9620, 37°C, read after ca. 20 h, read-out: MHK-Werte
[4] = test system: Mycoplasma iowae M 95144; assay: MIC (MHK), agar serial dilution, mycoplasma read microscopically; format: cell-based; conditions: Malacoplasma iowae, M95144, Stamm M 95144, read microscopically after 5 to 7 days, read-out: MHK-Werte
[5] = test system: Clostridium perfringens Cl 9606; assay: microbe, parasite or virus in culture; format: cell-based; conditions: CL9606, 20 h, read-out: MHK-Werte
[6] = test system: Pseudomonas aeruginosa P 9503; assay: MIC (MHK), agar serial dilution on Iso-Sensitest agar; format: cell-based; conditions: P9503, Stamm P 9503, 37°C, read after ca. 20 h, read-out: MHK-Werte
[7] = test system: Salmonella spp. S 9659; assay: as above; format: cell-based; conditions: SPP.S9659, Stamm S 9659, 37°C, read after ca. 20 h, read-out: MHK-Werte
From the text: (§1) Die minimalen Hemmkonzentrationen (MHK) der erfindungsgemäßen Verbindungen wurden per Reihenverdünnungsverfahren auf Iso-Sensitest Agar (Oxoid) bestimmt. Für jede Prüfsubstanz wurde eine Reihe von Agarplatten hergestellt, die bei jeweils doppelter Verdünnung abfallende Konzentrationen des Wirkstoffs enthielten. Die Agarplatten wurden mit einem Multipoint-Inokulator (Denley) beimpft. Zum Beimpfen wurden Übernachtkulturen der Erreger verwandt, die zuvor so verdünnt wurden, dass jeder Impfpunkt ca. 10^4 koloniebildende Partikel enthielt. Die beimpften Agarplatten wurden bei 37°C bebrütet, und das Keimwachstum wurde nach ca. 20 Stunden abgelesen. Der MHK-Wert (µg/ml) gibt die niedrigste Wirkstoffkonzentration an, bei der mit bloßem Auge kein Wachstum zu erkennen war. Die Erfassung der MHK-Werte für Mycoplasmen erfolgte mikroskopisch nach einer Inkubationszeit von 5 bis 7 Tagen.
(§2) In der nachstehenden Tabelle sind die MHK-Werte einer der erfindungsgemäßen Verbindungen im Vergleich zu Enrofloxacin als Referenzverbindung aufgeführt.

[8] = test system: Streptococcus agalactiae Scc 9549; assay: as above; format: cell-based; conditions: SCC9549, Stamm Scc 9549, 37°C, read after ca. 20 h, read-out: MHK-Werte
[9] = in vivo; set-up: species or system Hunde (Beagle); conditions: dog, 5 mg/kg
Experimental: Die verbesserten pharmakokinetischen Eigenschaften der erfindungsgemäßen Substanz aus […] Enrofloxacin in einer Serumkinetik-Studie an Hunden gezeigt werden. Die Substanzen wurden in einer Dosierung von 5 mg/kg Körpergewicht an jeweils 6 Hunden […] Beagle geprüft. Dabei […].), intramuskulär (i. m.) und oral in […] Cross-Over-Anordnung zur Anwendung. Bei allen Applikationsarten konnte gezeigt werden, dass mit der erfindungsgemäßen Substanz aus […]1/2) und […] und somit eine größere Substanzmenge im Organismus zur […] unter der Serumspiegelkurve, AUC0-24).

[10] = test system: Bordetella bronchiseptica B 9610; assay: MIC (MHK), agar serial dilution on Iso-Sensitest agar; format: cell-based; conditions: B9610, Stamm B 9610, 37°C, read after ca. 20 h, read-out: MHK-Werte
[11] = test system: E. coli Ec 9658; assay: as above; format: cell-based; conditions: Escherichia coli, EC9658, Stamm Ec 9658, 37°C, read after ca. 20 h, read-out: MHK-Werte
[12] = test system: Mycoplasma hyorhinis M 9557; assay: MIC (MHK), agar serial dilution, mycoplasma read microscopically; format: cell-based; conditions: M9557, Stamm M 9557, read microscopically after 5 to 7 days, read-out: MHK-Werte
[13] = test system: Actinobacillus pleuropneumoniae App 06/94; assay: MIC (MHK), agar serial dilution on Iso-Sensitest agar; format: cell-based; conditions: APP06/94, Stamm App 06/94, 37°C, read after ca. 20 h, read-out: MHK-Werte
[14] = test system: Mycoplasma bovis M 9548; assay: MIC (MHK), agar serial dilution, mycoplasma read microscopically; format: cell-based; conditions: Mycoplasmopsis bovis, M9548, Stamm M 9548, read microscopically after 5 to 7 days, read-out: MHK-Werte
From the text: as §1, with “Der MHK-Wert (µg/ml) gibt die niedrigste Wirkstoffkonzentration an, bei der mit bloßem Auge kein Wachstum zu erkennen war. Die Erfassung der MHK-Werte für Mycoplasmen erfolgte mikroskopisch nach einer Inkubationszeit von 5 bis 7 Tagen.” left out
as §2

Row | SMILES | MIC [1] [µg/mL] | MIC [2] [µg/mL] | MIC [3] [µg/mL] | MIC [4] [µg/mL] | MIC [5] [µg/mL] | MIC [6] [µg/mL] | MIC [7] [µg/mL] | MIC [8] [µg/mL] | AUC(0-t) at 24 h ([9]; im) [ng·h/mL] | Cmax ([9]; im) [ng/mL] | MRT ([9]; im) [h] | half-life ([9]; im) [h] | AUC(0-t) at 24 h ([9]; iv) [ng·h/mL] | MRT ([9]; iv) [h] | half-life ([9]; iv) [h] | AUC(0-t) at 24 h ([9]; po) [ng·h/mL] | Cmax ([9]; po) [ng/mL] | MRT ([9]; po) [h] | half-life ([9]; po) [h] | also measured
1 | N#Cc1c(N2C[C@@H]3CCCN[C@@H]3C2)c(F)cc2c(=O)c(C(=O)O)cn(C3CC3)c12 [Beispiel 1, 8-Cyan-1-cyclopropyl-7-((1S,6S)-2,8-diazabicyclo[4.3.0]nonan-8-yl)-6-fluor-1,4-dihydro-4-oxo-3-chinolincarbonsäure] | 0.25 (≈ 0.631 µM) | 0.06 (≈ 0.151 µM) | 0.03 (≈ 0.0757 µM) | 0.06 (≈ 0.151 µM) | 0.25 (≈ 0.631 µM) | 0.25 (≈ 0.631 µM) | 0.06 (≈ 0.151 µM) | 0.03 (≈ 0.0757 µM) | 19800 | 2400 | 8.5 | 6.9 | 20000 | 11.5 | 10.5 | 17400 | 1300 | 14.7 | 9.5 | 
2 | CCN1CCN(c2cc3c(cc2F)c(=O)c(C(=O)O)cn3C2CC2)CC1 [Enrofloxacin] | 1 (≈ 2.78 µM) | 0.5 (≈ 1.39 µM) | 4 (≈ 11.1 µM) | 0.5 (≈ 1.39 µM) | 4 (≈ 11.1 µM) | 1 (≈ 2.78 µM) | 0.5 (≈ 1.39 µM) | 0.5 (≈ 1.39 µM) | 8400 | 2100 | 3.9 | 2.9 | 10400 | 4.2 | 3.7 | 7000 | 1000 | 7.3 | 4.3 | MIC [10]: 0.5 µg/mL (≈ 1.39 µM); MIC [11]: 0.03 µg/mL (≈ 0.0835 µM); MIC [12]: 0.06 µg/mL (≈ 0.167 µM); MIC [13]: 0.06 µg/mL (≈ 0.167 µM); MIC [14]: 0.25 µg/mL (≈ 0.696 µM)
